Test results published in ChEMBL document CHEMBL1909553, “Design, synthesis and biological evaluation of substituted 11H-benzo[a]carbazole-5-carboxamides as novel antitumor agents” (Eur J Med Chem, 2011).
pIC50: −log10 of the molar value. Activity calls are given as the source filed them. The rule behind the calls is not given here.

Key:
A549 = assay: Growth inhibition of human A549 cells measured after 72 hrs by SRB assay; type: functional, cell-based; conditions: A549, 72 h
HCT-116 [1] = assay: Growth inhibition of human HCT116 cells measured after 72 hrs by SRB assay; type: functional, cell-based; conditions: HCT-116, 72 h
HCT-116 [2] = assay: Antitumor activity against human HCT116 cells transplanted in nude mouse assessed as decrease in tumor volume at 15 mg/kg, iv administered three times per week for three weeks measured on day 21 (reference value: 1245 +/- 192 mm'3); type: functional
HCT-116 [3] = assay: Antitumor activity against human HCT116 cells transplanted in nude mouse assessed as tumor volume at 15 mg/kg, iv administered three times per week for three weeks relative to control; type: functional
Mus musculus = assay: Toxicity in nude mouse xenografted with human HCT116 cells assessed as body weight change at 15 mg/kg, iv administered three times a week for 3 weeks (reference value: 19.4 g); type: organism-based, HCT-116; design: dose 15 mg/kg, route intravenous; conditions: in vivo, 504 h
Nucleic Acid = assay: Binding affinity to linearized Escherichia coli pBR322 DNA assessed as inhibition of T4-DNA ligase-mediated circularization at 100 uM after 30 mins by agarose gel electrophoresis; type: nucleic-acid assay
HL-60 [4] = assay: Cell cycle arrest in human HL60 cells assessed as accumulation at G2/M phase at 8 uM after 24 hrs by propidium iodide staining-based flow cytometric analysis relative to control; type: functional
HL-60 [5] = assay: Cell cycle arrest in human HL60 cells assessed as accumulation at G2/M phase at 2 uM after 24 hrs by propidium iodide staining-based flow cytometric analysis relative to control; type: functional

Compound	pIC50 (A549)	pIC50 (HCT-116 [1])	also measured
O=C(NCCN1CCNCC1)c1cc2c3ccccc3[nH]c2c2cc(Br)ccc12	4.16	4.15	–
O=C(NCCO)c1cc2c3ccccc3[nH]c2c2cc(Br)ccc12	< 4.00	< 4.00	–
O=C(NCCN1CCCCC1)c1cc2c3ccccc3[nH]c2c2cc(Br)ccc12	4.71	4.77	–
CNCCNC(=O)c1cc2c3ccccc3[nH]c2c2cc(Br)ccc12	4.76	4.79	–
CN(C)CCN1C(=O)c2cccc3cc(N)cc(c23)C1=O.O=C(O)CC(O)(CC(=O)O)C(=O)O [AMONAFIDE CITRATE]	–	–	Activity (HCT-116 [2]): 664 mm3; T/C (HCT-116 [3]): 52.74%; Activity (Mus musculus): 14.6 g
CN(C)CCNC(=O)c1cc2c3ccccc3[nH]c2c2cc(Br)ccc12	4.92	5.06	inhibition (Nucleic Acid): Active; Activity (HL-60 [4]): 48.13%
CN(C)CCN1C(=O)c2cccc3cc(N)cc(c23)C1=O [AMONAFIDE]	5.09	4.82	–
CN(C)CCCNC(=O)c1cc2c3ccccc3[nH]c2c2cc(Br)ccc12 [listing 1 of 2 here]	–	–	inhibition (Nucleic Acid): Active
CN(C)CCNC(=O)c1cc2c3ccccc3[nH]c2c2cc(N(C)C)ccc12	4.64	4.70	–
O=C(NCCNCCO)c1cc2c3ccccc3[nH]c2c2cc(Br)ccc12	4.59	4.76	–
CN(C)CCNC(=O)c1cc2c3ccccc3[nH]c2c2cc(N)ccc12	4.42	4.44	–
O=C(NCCN1CCCC1)c1cc2c3ccccc3[nH]c2c2cc(Br)ccc12	4.97	4.96	–
CN(C)CCCNC(=O)c1cc2c3ccccc3[nH]c2c2cc(Br)ccc12.O=C(O)CC(O)(CC(=O)O)C(=O)O	–	–	Activity (HCT-116 [2]): 676 mm3; T/C (HCT-116 [3]): 58.97%; Activity (Mus musculus): 16.3 g
CN(C)CCN1C(=O)c2cccc3c2c(cc2c4ccccc4sc32)C1=O	6.40	5.66	inhibition (Nucleic Acid): Active; Activity (HL-60 [5]): 52.48%
O=C(NCCN1CCOCC1)c1cc2c3ccccc3[nH]c2c2cc(Br)ccc12	5.03	4.19	–
CN(C)CCCNC(=O)c1cc2c3ccccc3[nH]c2c2cc(Br)ccc12 [listing 2 of 2 here]	5.09	5.02	Activity (HL-60 [5]): 61.3%
CN(C)CCNC(=O)c1cc2c3ccccc3[nH]c2c2ccccc12	4.62	4.62	–
